Source: PubChem BioAssay (NCI)
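A five-concentration, 48-hour dose response in 96-well plates underlies each endpoint, interpolated linearly between surrounding concentrations. Definition used: TGI = concentration required for complete inhibition of growth.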

Tests used:
Assay in all cases: NCI-60 cell line screen, 48 h
EKVX NSCLC = test system: EKVX NSCLC
SF-295 CNS = test system: SF-295 CNS
SNB-19 CNS = test system: SNB-19 CNS
K-562 leukemia = test system: K-562 leukemia
SN12C renal = test system: SN12C renal
HL-60(TB) leukemia = test system: HL-60(TB) leukemia
NCI-H522 lung = test system: NCI-H522 lung
KM12 colon = test system: KM12 colon
SK-MEL-28 melanoma = test system: SK-MEL-28 melanoma
SF-268 CNS = test system: SF-268 CNS
UACC-257 melanoma = test system: UACC-257 melanoma
MOLT-4 leukemia = test system: MOLT-4 leukemia
SK-MEL-2 melanoma = test system: SK-MEL-2 melanoma
BT-549 breast = test system: BT-549 breast
RXF 393 renal = test system: RXF 393 renal
NCI-H460 lung = test system: NCI-H460 lung
SNB-75 CNS = test system: SNB-75 CNS
CAKI-1 renal = test system: CAKI-1 renal
HT29 colon = test system: HT29 colon
TK-10 renal = test system: TK-10 renal
T-47D breast = test system: T-47D breast
OVCAR-3 ovarian = test system: OVCAR-3 ovarian
OVCAR-5 ovarian = test system: OVCAR-5 ovarian
MDA-MB-435 = test system: MDA-MB-435
HCT-116 colon = test system: HCT-116 colon
NCI/ADR-RES ovarian = test system: NCI/ADR-RES ovarian
M14 melanoma = test system: M14 melanoma
U251 CNS = test system: U251 CNS
A498 renal = test system: A498 renal
A549 NSCLC = test system: A549 NSCLC
NCI-H226 lung = test system: NCI-H226 lung
SK-MEL-5 melanoma = test system: SK-MEL-5 melanoma
OVCAR-4 ovarian = test system: OVCAR-4 ovarian
MDA-N = test system: MDA-N
HOP-62 NSCLC = test system: HOP-62 NSCLC
SW-620 colon = test system: SW-620 colon
IGROV1 ovarian = test system: IGROV1 ovarian
CCRF-CEM leukemia = test system: CCRF-CEM leukemia
HOP-92 NSCLC = test system: HOP-92 NSCLC
786-0 renal = test system: 786-0 renal
HS 578T breast = test system: HS 578T breast
MDA-MB-231 breast = test system: MDA-MB-231 breast
ACHN renal = test system: ACHN renal
OVCAR-8 ovarian = test system: OVCAR-8 ovarian
COLO 205 colon = test system: COLO 205 colon
NCI-H23 lung = test system: NCI-H23 lung
SF-539 CNS = test system: SF-539 CNS
LOX IMVI melanoma = test system: LOX IMVI melanoma
MALME-3M melanoma = test system: MALME-3M melanoma
SK-OV-3 ovarian = test system: SK-OV-3 ovarian
HCT-15 colon = test system: HCT-15 colon
RPMI-8226 leukemia = test system: RPMI-8226 leukemia
UO-31 renal = test system: UO-31 renal
PC-3 prostate = test system: PC-3 prostate
DU-145 prostate = test system: DU-145 prostate
UACC-62 melanoma = test system: UACC-62 melanoma
SR leukemia = test system: SR leukemia
HCC-2998 colon = test system: HCC-2998 colon

SMILES: CN1C2CCC1CN(CCOC(c1ccc(F)cc1)c1ccc(F)cc1)C2
- TGI (EKVX NSCLC): > 100 µM
- TGI (SF-295 CNS): 39.1 µM
- TGI (SNB-19 CNS): > 100 µM
- TGI (K-562 leukemia): 62.6 µM
- TGI (SN12C renal): > 100 µM
- TGI (HL-60(TB) leukemia): 31.3 µM
- TGI (NCI-H522 lung): > 100 µM
- TGI (KM12 colon): 49.5 µM
- TGI (SK-MEL-28 melanoma): 30.1 µM
- TGI (SF-268 CNS): > 100 µM
- TGI (UACC-257 melanoma): 37.3 µM
- TGI (MOLT-4 leukemia): 83.7 µM
- TGI (SK-MEL-2 melanoma): 56.3 µM
- TGI (BT-549 breast): > 100 µM
- TGI (RXF 393 renal): 43 µM
- TGI (NCI-H460 lung): 60.6 µM
- TGI (SNB-75 CNS): > 100 µM
- TGI (CAKI-1 renal): > 100 µM
- TGI (HT29 colon): 73.7 µM
- TGI (TK-10 renal): > 100 µM
- TGI (T-47D breast): 76.6 µM
- TGI (OVCAR-3 ovarian): > 100 µM
- TGI (OVCAR-5 ovarian): > 100 µM
- TGI (MDA-MB-435): 63.7 µM
- TGI (HCT-116 colon): 44.8 µM
- TGI (NCI/ADR-RES ovarian): > 100 µM
- TGI (M14 melanoma): 38.8 µM
- TGI (U251 CNS): 78.9 µM
- TGI (A498 renal): 86 µM
- TGI (A549 NSCLC): > 100 µM
- TGI (NCI-H226 lung): > 100 µM
- TGI (SK-MEL-5 melanoma): 27.8 µM
- TGI (OVCAR-4 ovarian): > 100 µM
- TGI (MDA-N): > 100 µM
- TGI (HOP-62 NSCLC): 59.3 µM
- TGI (SW-620 colon): 83.8 µM
- TGI (IGROV1 ovarian): > 100 µM
- TGI (CCRF-CEM leukemia): > 100 µM
- TGI (HOP-92 NSCLC): 93.9 µM
- TGI (786-0 renal): 40 µM
- TGI (HS 578T breast): > 100 µM
- TGI (MDA-MB-231 breast): 58.5 µM
- TGI (ACHN renal): > 100 µM
- TGI (OVCAR-8 ovarian): > 100 µM
- TGI (COLO 205 colon): 33.8 µM
- TGI (NCI-H23 lung): > 100 µM
- TGI (SF-539 CNS): 38 µM
- TGI (LOX IMVI melanoma): 39.1 µM
- TGI (MALME-3M melanoma): 32.5 µM
- TGI (SK-OV-3 ovarian): > 100 µM
- TGI (HCT-15 colon): > 100 µM
- TGI (RPMI-8226 leukemia): 55.9 µM
- TGI (UO-31 renal): > 100 µM
- TGI (PC-3 prostate): > 100 µM
- TGI (DU-145 prostate): > 100 µM

SMILES: Cc1ccc2nc(-c3ccc(N)c(Br)c3)sc2c1
- TGI (EKVX NSCLC): 58 µM
- TGI (SF-295 CNS): > 100 µM
- TGI (SNB-19 CNS): > 100 µM
- TGI (K-562 leukemia): > 100 µM
- TGI (SN12C renal): > 100 µM
- TGI (HL-60(TB) leukemia): > 100 µM
- TGI (NCI-H522 lung): 47.7 µM
- TGI (KM12 colon): 30.8 µM
- TGI (SK-MEL-28 melanoma): > 100 µM
- TGI (SF-268 CNS): > 100 µM
- TGI (UACC-257 melanoma): 72.2 µM
- TGI (MOLT-4 leukemia): 97.5 µM
- TGI (SK-MEL-2 melanoma): 73.4 µM
- TGI (BT-549 breast): 35.9 µM
- TGI (RXF 393 renal): 50 µM
- TGI (NCI-H460 lung): 31.5 µM
- TGI (CAKI-1 renal): > 100 µM
- TGI (HT29 colon): > 100 µM
- TGI (UACC-62 melanoma): > 100 µM
- TGI (T-47D breast): 59.7 µM
- TGI (OVCAR-3 ovarian): 40.1 µM
- TGI (OVCAR-5 ovarian): > 100 µM
- TGI (MDA-MB-435): 64.1 µM
- TGI (HCT-116 colon): > 100 µM
- TGI (NCI/ADR-RES ovarian): > 100 µM
- TGI (M14 melanoma): > 100 µM
- TGI (U251 CNS): > 100 µM
- TGI (A498 renal): > 100 µM
- TGI (SR leukemia): 43.2 µM
- TGI (A549 NSCLC): > 100 µM
- TGI (NCI-H226 lung): > 100 µM
- TGI (SK-MEL-5 melanoma): > 100 µM
- TGI (OVCAR-4 ovarian): > 100 µM
- TGI (MDA-N): > 100 µM
- TGI (HOP-62 NSCLC): 26.2 µM
- TGI (CCRF-CEM leukemia): 45.7 µM
- TGI (HOP-92 NSCLC): 50.6 µM
- TGI (786-0 renal): > 100 µM
- TGI (HS 578T breast): 43.6 µM
- TGI (MDA-MB-231 breast): 86.4 µM
- TGI (ACHN renal): > 100 µM
- TGI (OVCAR-8 ovarian): > 100 µM
- TGI (COLO 205 colon): > 100 µM
- TGI (NCI-H23 lung): 96.9 µM
- TGI (SF-539 CNS): > 100 µM
- TGI (LOX IMVI melanoma): 30.4 µM
- TGI (MALME-3M melanoma): > 100 µM
- TGI (SK-OV-3 ovarian): 88.4 µM
- TGI (HCT-15 colon): > 100 µM
- TGI (UO-31 renal): 35.4 µM
- TGI (PC-3 prostate): > 100 µM
- TGI (DU-145 prostate): > 100 µM
- TGI (HCC-2998 colon): 14.8 µM

SMILES: COc1cc(OC)cc(-n2c(N)c(C#N)c3ccc([N+](=O)[O-])cc3c2=O)c1
- TGI (SNB-19 CNS): 40.4 µM
- TGI (K-562 leukemia): > 100 µM
- TGI (SN12C renal): 52.3 µM
- TGI (KM12 colon): > 100 µM
- TGI (SK-MEL-28 melanoma): > 100 µM
- TGI (SF-268 CNS): > 100 µM
- TGI (UACC-257 melanoma): > 100 µM
- TGI (SK-MEL-2 melanoma): > 100 µM
- TGI (BT-549 breast): > 100 µM
- TGI (NCI-H460 lung): > 100 µM
- TGI (SNB-75 CNS): 60.6 µM
- TGI (CAKI-1 renal): 90.8 µM
- TGI (HT29 colon): > 100 µM
- TGI (TK-10 renal): 69 µM
- TGI (UACC-62 melanoma): > 100 µM
- TGI (T-47D breast): > 100 µM
- TGI (MDA-MB-435): > 100 µM
- TGI (HCT-116 colon): > 100 µM
- TGI (NCI/ADR-RES ovarian): > 100 µM
- TGI (U251 CNS): 52.4 µM
- TGI (A498 renal): 41.6 µM
- TGI (SR leukemia): 55.8 µM
- TGI (A549 NSCLC): > 100 µM
- TGI (NCI-H226 lung): 51.6 µM
- TGI (SK-MEL-5 melanoma): > 100 µM
- TGI (OVCAR-4 ovarian): 52 µM
- TGI (MDA-N): > 100 µM
- TGI (SW-620 colon): > 100 µM
- TGI (HOP-92 NSCLC): 44.9 µM
- TGI (786-0 renal): 39.5 µM
- TGI (HS 578T breast): 87.6 µM
- TGI (MDA-MB-231 breast): 96.2 µM
- TGI (ACHN renal): > 100 µM
- TGI (OVCAR-8 ovarian): 59.2 µM
- TGI (COLO 205 colon): > 100 µM
- TGI (NCI-H23 lung): > 100 µM
- TGI (LOX IMVI melanoma): > 100 µM
- TGI (HCT-15 colon): > 100 µM
- TGI (RPMI-8226 leukemia): > 100 µM
- TGI (UO-31 renal): 74.9 µM
- TGI (PC-3 prostate): > 100 µM
- TGI (DU-145 prostate): 47.1 µM
- TGI (HCC-2998 colon): > 100 µM
